Reference: paper PMC10728849, “Solubility of Some Drugs in Aqueous Solutions of Choline Chloride-Based Deep Eutectic Solvent Systems: Experimental Data, Modeling, and the Impact of Solution pH” (Iranian Journal of Pharmaceutical Research : IJPR, 2023)
Converted amounts (≈) assume the structure as drawn. Marks after values point to notes of the source that are not given here.

Assays:
[1] = Solubility measurement by shake flask method (UV spectrophotometry); conditions: for SChCl-G50%/ SChCl-G10% / SChCl-U50%/ SChCl-U10%: solubility ratio in DES50% to DES10%; for SChCl-G50%/ SChCl-G10%: ChCl-G; for SChCl-U50%/ SChCl-U10%: ChCl-U; for solubility at 48 h: 37 °C, thermodynamic from solid, 37 ± 1°C
Procedure: A DES composed of ChCl + G/U was selected for this study. It was prepared based on a previously reported method in the literature ([13], [14]). First, the components of DESs, including ChCl as a hydrogen bond acceptor (HBA) and G/U as a hydrogen bond donor (HBD), were weighed using an analytical balance (ATX224, Shimadzu, Japan) with 1×10^-4 g precision at a specific mole fraction of 1:2, respectively. The measured amounts of these compositions were added into a beaker and sealed firmly with Parafilm. Then, it was heated at 70°C while stirring at 550 rpm for 60 minutes until a clear and uniform liquid was formed. At the end of the synthesis process of DES, the prepared liquids were cooled and used as a new class of cosolvents for drug solubilization.
Many different techniques of solubility measurements have been reported in the literature. The shake flask is a popular and convenient method for solubility determination ([21]), which was applied in this study. First, solvent mixtures were made by weighing 10:90% and 50:50% mass fractions of DES: water, respectively. Excess amounts of poorly soluble drugs were added into glass vials containing 4 g prepared solvent mixtures. All of the vials were shaken on a shaker (Heidolph, Schwabach, Germany) and placed in an incubator (Kimia Idea Pardaz Azarbaijan (KIPA) co., Tabriz, Iran) at 37 ± 1°C and 180 rpm for 48 hours. […] The saturated solutions were centrifuged at 6000 rpm for 15 minutes (Tomy Micro One, Tokyo, Japan) and filtered in some cases (Filter Bioscience Membrane Technology Co., 0.22 µm). […] Finally, the absorbance of each solution was converted to concentration using the calibration curves, taking into account the dilution factor. The solubility of each drug was then calculated. Solubilities were determined three times in all cases, and the mean ± standard deviation of data was reported.

[2] = parameters: method as in doi:10.1016/j.molliq.2018.07.065; conditions: cited from earlier work
[3] = cited from earlier work
[4] = pH of saturated solutions (final pH of dissolution medium); assay type: physicochemical
Excerpt: Acidic and basic compounds can change the pH of the dissolution medium in water.

[5] = aqueous with cosolvent or surfactant or cyclodextrin, Water+ ChCl-G50%, 50:50% mass fraction choline chloride-glycerol (1:2) DES:water
[6] = pH 7.5, aqueous with cosolvent or surfactant or cyclodextrin, Water + ChCl-U10%, 10:90% mass fraction choline chloride-urea (1:2) DES:water
[7] = pH 8.3, aqueous with cosolvent or surfactant or cyclodextrin, Water+ ChCl-U50%, 50:50% mass fraction choline chloride-urea (1:2) DES:water
[8] = aqueous with cosolvent or surfactant or cyclodextrin, Water + ChCl-G10%, 10:90% mass fraction choline chloride-glycerol (1:2) DES:water

SMILES | SChCl-G50%/ SChCl-G10% [1] | SChCl-U50%/ SChCl-U10% [1] | solubility at 48 h [1, 5] | solubility at 48 h [1, 6] | solubility at 48 h [1, 7] | Solubility, Water [2] | solubility at 48 h [1, 8] | pKa [3] | pH of saturated solution ([4]; in ChCl-U10%) | pH of saturated solution ([4]; in ChCl-U50%) | pH of saturated solution ([4]; in water)
CC(C)NCC(O)COc1ccc(CC(N)=O)cc1 (stereo not drawn) [Atenolol, atenolol] | 1.03 | 1.05 |  |  |  |  |  |  |  |  | 
O=C(O)c1ccccc1 [Benzoic acid, benzoic acid] | 1.76 | 3.16 |  |  |  |  |  |  |  |  | 
NC(=O)N1c2ccccc2C=Cc2ccccc21 [Carbamazepine, carbamazepine] | 8.54 | 8.48 | 2730 ± 230 µg/mL (≈ 11600 µM) | 463 ± 10 µg/mL | 3930 ± 344 µg/mL (≈ 16600 µM) | 0.296 ± 0.0139 ^a g/L |  |  |  |  | 
COc1ccccc1OCCNCC(O)COc1cccc2[nH]c3ccccc3c12 (stereo not drawn) [Carvedilol, carvedilol] | 5.48 | 6.79 | 873 ± 27 µg/mL (≈ 2150 µM) | 91 ± 7 µg/mL | 620 ± 20 µg/mL (≈ 1530 µM) | 0.032 ± 0.0030 ^a g/L | 159 ± 12 µg/mL |  |  |  | 
O=C(O)CO [Glycolic acid] |  |  |  |  |  |  |  | 3.6 |  |  | 
CC(C)Cc1ccc(C(C)C(=O)O)cc1 (stereo not drawn) [Ibuprofen] |  |  | 242 ± 4 µg/mL (≈ 1170 µM) | 1300 ± 263 µg/mL | 3890 ± 622 µg/mL (≈ 18900 µM) | 0.104 ± 0.0035 ^a g/L | 141 ± 8 µg/mL |  | 4.5 | 4.9 | 6.4
CC(=O)N1CCN(c2ccc(OCC3COC(Cn4ccnc4)(c4ccc(Cl)cc4Cl)O3)cc2)CC1 (stereo not drawn) [Ketoconazole, ketoconazole] | 2.16 | 2.24 | 77 ± 7 µg/mL (≈ 145 µM) | 28 ± 1 µg/mL | 62 ± 6 µg/mL (≈ 117 µM) | 0.008 ± 0.0008 ^a g/L | 35 ± 1 µg/mL |  |  |  | 
Nc1nnc(-c2cccc(Cl)c2Cl)c(N)n1 [Lamotrigine, lamotrigine] | 4.52 | 4.41 | 2285 ± 18 µg/mL (≈ 8920 µM) | 482 ± 15 µg/mL | 2126 ± 16 µg/mL (≈ 8300 µM) | 0.342 ± 0.0161 ^a g/L | 506 ± 17 µg/mL |  |  |  | 
c1ccc2c(c1)Nc1ccccc1S2 [Phenothiazine, phenothiazine] | 18.06 | 5.83 | 99 ± 10 µg/mL (≈ 497 µM) | 23 ± 0.3 µg/mL | 135 ± 15 µg/mL (≈ 677 µM) | 0.003 ± 0.0004 ^a g/L | 5 µg/mL |  |  |  | 
O=C1NC(=O)C(c2ccccc2)(c2ccccc2)N1 [Phenytoin, phenytoin] | 4.24 | 7.25 | 255 ± 20 µg/mL (≈ 1010 µM) | 104 ± 8 µg/mL | 753 ± 60 µg/mL (≈ 2980 µM) | 0.056 ± 0.0053 ^a g/L | 60 ± 5 µg/mL |  |  |  | 
CN1C(C(=O)Nc2ccccn2)=C(O)c2ccccc2S1(=O)=O [Piroxicam, piroxicam] | 1.28 | 3.63 | 40 ± 1 µg/mL (≈ 121 µM) | 571 ± 35 µg/mL | 2070 ± 36 µg/mL (≈ 6250 µM) | 0.032 ± 0.0014 ^a g/L | 32 ± 2 µg/mL |  | 6.1 | 6.2 | 5.6
O=C(O)c1ccccc1O [Salicylic acid, salicylic acid] | 1.80 | 3.29 | 12700 ± 265 µg/mL (≈ 92200 µM) | 9840 ± 555 µg/mL | 32400 ± 671 µg/mL (≈ 234000 µM) | 2.755 ± 0.3031 ^a g/L | 7060 ± 422 µg/mL |  |  |  | 
CN1CC(=O)N2[C@H](c3ccc4c(c3)OCO4)c3[nH]c4ccccc4c3C[C@@H]2C1=O [Tadalafil, tadalafil] | 5.25 | 8.42 | 91 ± 6 µg/mL (≈ 234 µM) | 18 ± 2 µg/mL | 151 ± 10 µg/mL (≈ 388 µM) | 0.016 ± 0.0019 ^a g/L | 17 ± 2 µg/mL |  |  |  | 
